# Key:
# CCRF-CEM [1] = assay: Tested for the inhibitory concentration against cell growth of human leukemic cell line CCRF-CEM; assay type: functional
# CCRF-CEM [2] = assay: Tested for the concentration required to reduce the viability of leukemia cells by 50% against cell growth of T cell leukemia cell line CCRF-CEM using MTT assay; assay type: functional; conditions: Homo sapiens
# CCRF-CEM [3] = assay: Tested for the inhibitory concentration against cell growth of Tcell leukemic cell line CCRF-CEM using MTT assay; assay type: functional; conditions: Homo sapiens
# E6SM [4] = assay: Tested for antiviral activity against VSV-virus in human embryonic skin muscle fibroblasts; assay type: functional; conditions: Muscle tissue
# E6SM [5] = assay: Tested for antiviral activity against herpes simplex virus type 1(KOS) in E6SM cell line(human embryonic skin-muscle fibroblasts); assay type: functional
# E6SM [6] = assay: Tested for antiviral activity against vaccinia virus in human embryonic skin muscle fibroblast; assay type: functional; conditions: Muscle tissue
# E6SM [7] = assay: The compound was tested for antiviral activity against VSV-virus in human epithelial cells; assay type: functional
# E6SM [8] = assay: Tested for cytotoxic activity in human embryonic skin muscle fibroblast (E6SM); assay type: functional; conditions: Muscle tissue
# E6SM [9] = assay: Antiviral activity against thymidine kinase-deficient (TK-HSV-1)virus in E6SM cell line(human embryonic skin-muscle fibroblasts); assay type: functional
# Escherichia coli = assay: Tested for the antimicrobial activity against Escherichia coli ATCC 25922; assay type: functional
# HEL [10] = assay: Tested for cytotoxic activity in human embryonic lung fibroblast (HEL); assay type: functional
# HEL [11] = assay: Tested for antiviral activity against human cytomegalovirus (AD-169) in human embryonic lung fibroblasts; assay type: functional
# HEL [12] = assay: Tested for antiviral activity against thymidine kinase deficient Varicella zoster virus in human embryonic lung fibroblasts; assay type: functional
# HEL [13] = assay: Tested for antiviral activity against thymidine kinase wild type Varicella zoster virus in human embryonic lung fibroblast; assay type: functional
# HeLa [14] = assay: Tested for antiviral activity against coxsackie-B4 virus in human epithelial cell line; assay type: functional
# HL-60 [15] = assay: Tested for the inhibitory concentration against cell growth of human leukemic cell line HL60; assay type: functional
# HL-60 [16] = assay: Tested for the concentration required to reduce the viability of leukemia cells by 50% against cell growth of HL60 acute myeloid leukemia using MTT assay; assay type: functional; conditions: Homo sapiens, read-out: LC50 (the source's name)
# HL-60 [17] = assay: Tested for the inhibitory concentration against cell growth of HL60 acute myeloid leukemia using MTT assay; assay type: functional; conditions: Homo sapiens
# HeLa [18] = assay: Tested for cytotoxic activity in human epithelial cell line (HeLa); assay type: functional
# HuT78 [19] = assay: Tested for the inhibitory concentration against cell growth of human leukemic cell line HuT78; assay type: functional
# HuT78 [20] = assay: Tested for the concentration required to reduce the viability of leukemia cells by 50% against cell growth of HuT78 T lymphoma using MTT assay; assay type: functional; conditions: Homo sapiens
# HuT78 [21] = assay: Tested for the inhibitory concentration against cell growth of HuT78 T lymphoma using MTT assay; assay type: functional; conditions: Homo sapiens
# K562 [22] = assay: Tested for the concentration required to reduce the viability of leukemia cells by 50% against cell growth of K562 chronic myeloid leukemia using MTT assay; assay type: functional; conditions: Homo sapiens, read-out: LC50 (the source's name)
# K562 [23] = assay: Tested for the inhibitory concentration against cell growth of K562 chronic myeloid leukemia using MTT assay; assay type: functional; conditions: Homo sapiens
# K562 [24] = assay: Tested for the inhibitory concentration against cell growth of human leukemic cell line K562; assay type: functional
# Klebsiella pneumoniae = assay: Tested for the antimicrobial activity against Klebsiella pneumoniae ATCC 13883; assay type: functional
# MOLT-4 [25] = assay: Tested for the inhibitory concentration against cell growth of human leukemic cell line MOLT-4; assay type: functional
# MT4 [26] = assay: Tested for effective concentration required to protect MT-4 cells against the cytopathicity of HIV-1(IIIB); assay type: functional; conditions: Homo sapiens, read-out: LC50 (the source's name)
# MT4 [27] = assay: Tested for effective concentration required to protect MT-4 cells against the cytopathicity of HIV-2(ROD); assay type: functional, cell-based; conditions: Homo sapiens
# MOLT-4 [28] = assay: Tested for the concentration required to reduce the viability of leukemia cells by 50% against cell growth of T cell leukemia cell line MOLT-4 using MTT assay; assay type: functional; conditions: Homo sapiens
# MOLT-4 [29] = assay: Tested for the inhibitory concentration against cell growth of Tcell leukemic cell line MOLT-4 using MTT assay; assay type: functional; conditions: Homo sapiens
# RPMI-8226 [30] = assay: Tested for the inhibitory concentration against cell growth of human leukemic cell line RPMI8226; assay type: functional
# RPMI-8226 [31] = assay: Tested for the concentration required to reduce the viability of leukemia cells by 50% against cell growth of RPMI8226 multiple myeloma using MTT assay; assay type: functional; conditions: Homo sapiens, read-out: LC50 (the source's name)
# RPMI-8226 [32] = assay: Tested for the inhibitory concentration against cell growth of […] multiple myeloma using MTT assay; assay type: functional; conditions: Homo sapiens
# Staphylococcus aureus = assay: Tested for the antimicrobial activity against Staphylococcus aureus ATCC 6538; assay type: functional
# [33] = tested on: Staphylococcus epidermidis; assay: Tested for the antimicrobial activity against Staphylococcus epidermidis ATCC 12228; assay type: functional
# Staphylococcus hominis = assay: Tested for the antimicrobial activity against Staphylococcus hominis ATCC 27844; assay type: functional
# Vero [34] = assay: Tested for cytotoxic activity in African green monkey kidney cells (Vero); assay type: functional; conditions: Chlorocebus sabaeus
# Vero [35] = assay: Tested for antiviral activity against Punta toro virus in African green monkey kidney cell (Vero); assay type: functional; conditions: Chlorocebus sabaeus
# Vero [36] = assay: Tested for antiviral activity against Reo-1 virus in African green monkey kidney cell (Vero); assay type: functional; conditions: Chlorocebus sabaeus
# Vero [37] = assay: Tested for antiviral activity against Sindbis virus in African green monkey kidney cell (Vero); assay type: functional; conditions: Chlorocebus sabaeus
# Vero [38] = assay: Tested for antiviral activity against coxsackie B-4 virus in African green monkey kidney cell (Vero); assay type: functional; conditions: Chlorocebus sabaeus
# Vero [39] = assay: Tested for antiviral activity against parainfluenza virus in african green monkey kidney cell (Vero); assay type: functional; conditions: Chlorocebus sabaeus
# MT4 [40] = assay: Tested for cytotoxic concentration required to reduce the viability of MT-4 cells by 50%; assay type: functional, cell-based; conditions: Homo sapiens, read-out: EC50 (the source's name)
# E6SM [41] = assay: Tested for antiviral activity against thymidine kinase-deficient (TK-HSV-2G) virus in E6SM cell line(human embryonic skin-muscle fibroblasts)
smiles,measurement,setting,value
S=C(N/N=C(/c1ccccn1)C12CC3CC(CC(C3)C1)C2)NNC(=S)c1ccc(Cl)cc1Cl,GI50,CCRF-CEM [1],66.3 µM
same,TGI,CCRF-CEM [2],100 µM
same,TGI,CCRF-CEM [3],100 µM
same,MIC,E6SM [4],> 16 µg/mL
same,MIC,E6SM [5],> 16 µg/mL
same,MIC,E6SM [6],> 16 µg/mL
same,MIC,E6SM [7],> 16 µg/mL
same,MCC,E6SM [8],80 µg/mL
same,MIC,E6SM [9],> 16 µg/mL
same,MIC,Escherichia coli,> 1880 µg/mL
same,MCC,HEL [10],5 µg/mL
same,MIC,HEL [11],> 2 µg/mL
same,MIC,HEL [12],> 2 µg/mL
same,MIC,HEL [13],> 2 µg/mL
same,MIC,HeLa [14],> 3.2 µg/mL
same,GI50,HL-60 [15],3.6 µM
same,CC50,HL-60 [16],31.9 µM
same,TGI,HL-60 [17],7 µM
same,MCC,HeLa [18],16 µg/mL
same,GI50,HuT78 [19],23 µM
same,TGI,HuT78 [20],100 µM
same,TGI,HuT78 [21],81 µM
same,CC50,K562 [22],100 µM
same,TGI,K562 [23],100 µM
same,GI50,K562 [24],100 µM
same,MIC,Klebsiella pneumoniae,> 1880 µg/mL
same,GI50,MOLT-4 [25],31.4 µM
same,EC50,MT4 [26],> 3 µM
same,EC50,MT4 [27],> 3 µM
same,TGI,MOLT-4 [28],100 µM
same,TGI,MOLT-4 [29],100 µM
same,GI50,RPMI-8226 [30],4.6 µM
same,CC50,RPMI-8226 [31],100 µM
same,TGI,RPMI-8226 [32],29.5 µM
same,MIC,Staphylococcus aureus,117 µg/mL
same,MIC,[33],117 µg/mL
same,MIC,Staphylococcus hominis,117 µg/mL
same,MCC,Vero [34],16 µg/mL
same,MIC,Vero [35],> 3.2 µg/mL
same,MIC,Vero [36],> 3.2 µg/mL
same,MIC,Vero [37],> 3.2 µg/mL
same,MIC,Vero [38],> 3.2 µg/mL
same,MIC,Vero [39],> 3.2 µg/mL
same,CC50,MT4 [40],2.6 µM
same,MIC,E6SM [41],> 3.2 µg/mL
C/C(=N/N=C(\N)S)C12CC3CC(CC(C3)C1)C2,GI50,CCRF-CEM [1],23.6 µM
same,TGI,CCRF-CEM [2],86.7 µM
same,TGI,CCRF-CEM [3],55.2 µM
same,MIC,E6SM [4],> 400 µg/mL
same,MIC,E6SM [5],240 µg/mL
same,MIC,E6SM [6],> 400 µg/mL
same,MIC,E6SM [7],240 µg/mL
same,MCC,E6SM [8],> 400 µg/mL
same,MIC,E6SM [9],> 400 µg/mL
same,MIC,Escherichia coli,> 3980 µg/mL
same,MCC,HEL [10],5 µg/mL
same,MIC,HEL [11],> 2 µg/mL
same,MIC,HEL [12],> 2 µg/mL
same,MIC,HEL [13],> 2 µg/mL
same,MIC,HeLa [14],> 80 µg/mL
same,GI50,HL-60 [15],5.2 µM
same,CC50,HL-60 [16],63.6 µM
same,TGI,HL-60 [17],24.1 µM
same,MCC,HeLa [18],400 µg/mL
same,GI50,HuT78 [19],2.3 µM
same,TGI,HuT78 [20],83.1 µM
same,TGI,HuT78 [21],29.1 µM
same,CC50,K562 [22],62.6 µM
same,TGI,K562 [23],10.4 µM
same,GI50,K562 [24],2.8 µM
same,MIC,Klebsiella pneumoniae,> 3980 µg/mL
same,GI50,MOLT-4 [25],2.3 µM
same,EC50,MT4 [26],> 8 µM
same,EC50,MT4 [27],> 8 µM
same,TGI,MOLT-4 [28],59.4 µM
same,TGI,MOLT-4 [29],9.3 µM
same,GI50,RPMI-8226 [30],7.1 µM
same,CC50,RPMI-8226 [31],69.2 µM
same,TGI,RPMI-8226 [32],33.3 µM
same,MIC,Staphylococcus aureus,> 3980 µg/mL
same,MIC,[33],> 3980 µg/mL
same,MIC,Staphylococcus hominis,> 3980 µg/mL
same,MCC,Vero [34],400 µg/mL
same,MIC,Vero [35],> 80 µg/mL
same,MIC,Vero [36],> 80 µg/mL
same,MIC,Vero [37],> 80 µg/mL
same,MIC,Vero [38],> 80 µg/mL
same,MIC,Vero [39],> 80 µg/mL
same,CC50,MT4 [40],7.5 µM
same,MIC,E6SM [41],> 80 µg/mL

# Source: ChEMBL document CHEMBL1135216, “New 2-(1-adamantylcarbonyl)pyridine and 1-acetyladamantane thiosemicarbazones-thiocarbonohydrazones: cell growth inhibitory, antiviral and antimicrobial activity evaluation” (Bioorg Med Chem Lett, 2002)
